These results are taken from paper PMC2894858 (PLoS ONE, 2010).

Read-outs that look alike come from different tables or passages of the source. Non-standard residues stand in square brackets, D forms with d. Residues, ends and D or L forms follow the SMILES beside them. Aib = CC(C)(N)C(=O)O

In assay [1] the target is T1, BoNT/A LC (Clostridium botulinum, UniProt P0DPI0). The conditions noted are these: cited from earlier work; for IC50: read-out: Reported Ki (cell: IC50).
In assay [2] the target is T1, BoNT/A LC. Description: biochemical. Format: biochemical. The conditions noted are these: for Ki range in words: pH 7.3.
Target sequence in this assay (P0DPI0 2-448 limits assumed): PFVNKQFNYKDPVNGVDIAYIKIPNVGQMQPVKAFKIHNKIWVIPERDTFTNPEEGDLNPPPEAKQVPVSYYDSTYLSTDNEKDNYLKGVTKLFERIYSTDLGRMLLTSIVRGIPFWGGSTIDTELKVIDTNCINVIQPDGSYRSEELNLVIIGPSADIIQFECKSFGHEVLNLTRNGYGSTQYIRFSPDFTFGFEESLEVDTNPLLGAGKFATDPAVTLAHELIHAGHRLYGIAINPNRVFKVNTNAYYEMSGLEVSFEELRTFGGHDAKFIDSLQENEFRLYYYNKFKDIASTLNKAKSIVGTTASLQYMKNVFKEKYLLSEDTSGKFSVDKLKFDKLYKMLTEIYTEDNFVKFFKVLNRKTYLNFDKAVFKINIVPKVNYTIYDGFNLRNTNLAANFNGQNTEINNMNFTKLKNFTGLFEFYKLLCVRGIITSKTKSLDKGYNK

Consider `O=C(/C=C/c1ccc(Cl)cc1)NO` [4-chlorocinnamic hydroxamate], for which the IC50 on BoNT/A LC [1] was 15 µM. Turning to `NC(N)=NCCC[C@H](N)C(=O)NO` [ArgHX, arginine hydroxamate], the IC50 at BoNT/A LC [1] is 60 µM. Consider `CSCC[C@H](NC(=O)[C@H](C)NC(=O)C(C)(C)NC(=O)[C@H](Cc1c[nH]c2ccccc12)NC(=O)[C@H](CCCNC(=N)N)NC(=O)[C@@H](N)CCCNC(=N)N)C(=O)N[C@@H](CC(C)C)C(N)=O` [JTH-NB72-38] (H-RRW[Aib]AML-NH2), for which, at BoNT/A LC [2], the Ki worked out at 0.991 ± 0.117 µM and the “Ki range in words” value was “nM range”. With `CSCC[C@H](NC(=O)[C@H](C)NC(=O)C(C)(C)NC(=O)[C@H](Cc1ccccc1)NC(=O)[C@H](CCCNC(=N)N)NC(=O)[C@@H](N)CCCNC(=N)N)C(=O)N[C@@H](CC(C)C)C(N)=O` [JTH-NB72-39] (H-RRF[Aib]AML-NH2), at BoNT/A LC [2], the Ki came to 0.638 ± 0.092 µM and the “Ki range in words” value is “nM range”. In the case of “Fmoc-L-Leu-OH (0.124 g, 0.350 mmol, 3.50 equiv), Fmoc-L-Met-OH (0.130 g, 0.350 mmol, 3.50 equiv), Fmoc-L-Ala-OH (0.115 g, 0.350 mmol, 3.50 equiv), Fmoc-Aib-OH (0.114 g, 0.350 mmol, 3.50 equiv), Fmoc-L-1-Nal-OH (0.153 g, 0.350 mmol, 3.50 equiv), Fmoc-L-Arg(Pbf)-OH (0.227 g, 0.350 mmol, 3.50 equiv), Fmoc-L-Arg(Pbf)-OH (0.227 g, 0.350 mmol, 3.50 equiv) [JTH-NB72-35]”, on BoNT/A LC [2], the “potency compared with I1” value was “none of them were as potent as I1”, the “potency rank among the three reported PLMs” value is given as “the most potent of the three reported PLMs” and the “Ki range in words” value is given as “nM range”. Consider QRATKM, for which, in the assay with BoNT/A LC [1], the Ki was 133 µM and the 50% inhibitory concentration (IC50) was 133 µM.

For orientation: IC50 means the concentration that gives 50% inhibition. As usually defined, the Ki is the equilibrium dissociation constant of an inhibitor or competing ligand from its target.
